Patent publication US8236849B2, “Model for glutamate racemase inhibitors and glutamate racemase antibacterial agents” (Ohio Northern University, priority 2008, dated 2012)

System: S. pneumoniae R6 strain
Assay: Whole-cell assay on blood agar plates, inhibition zones
Assay type: cell-based
Settings: 0.5, 0.75 and 1.0 μg/mL, data not shown
Experimental: Whole-cell Assays: Selected compounds were assayed against S. pneumoniae on blood agar plates as shown on FIG. 3.

SMILES	antibacterial activity (inhibition zones compared to DMSO)
Cc1ccc(C(=O)CC(NCCc2c[nH]c3ccccc23)C(=O)O)cc1 (centres unmarked) [Compound A, 2-(2-(1H-indol-3-yl)ethylamino)-4-oxo-4-p-tolylbutanoic acid]	weaker antibacterial activity than Compound B
O=C(CC(NCCc1c[nH]c2ccccc12)C(=O)O)c1ccc(F)cc1 (centres unmarked) [Compound B, 2-(2-(1H-indol-3-yl)ethylamino)-4-(4-fluorophenyl)-4-oxobutanoic acid]	significant antibacterial activity
